Test results: paper PMC6161010, “A Simple and Sensitive Liquid Chromatography with Tandem Mass Spectrometric Method for the Simultaneous Determination of Anthraquinone Glycosides and Their Aglycones in Rat Plasma: Application to a Pharmacokinetic Study of Rumex acetosa Extract” (Pharmaceutics, 2018)
Read-outs that look alike come from different tables or passages of the source.

Key:
[1] = Pharmacokinetic study after oral administration of R. acetosa extract to rats; type: in vivo, Sprague‒Dawley rats; details: oral R. acetosa extract 2 g/kg; for MRT / half-life / Tmax / first time detected in plasma of every rat (first sampling time) / time from which plasma concentrations were below the LLOQ / time until which the analyte could be detected in plasma / plasma concentrations (in words): rat; for MRT / half-life / Cmax / AUC(0-t): n = 3, mean ± SD; for Cmax / AUC(0-t): rat plasma; for AUC(0-t): last measured time points for C, E, CG, PG 6, 24, 8, 6 h
Procedure: The analysis was performed on an Agilent 1260 series (Agilent Technologies, Waldbronn, Germany) HPLC system. Chromatographic separation of the samples was carried out on a Kinetex Biphenyl column (100 × 3.0 mm, 2.6 μm, 110 Å, Phenomenex, Torrance, CA, USA). The mobile phase consisted of 2 mM ammonium formate (pH 6) in water (A) and 2 mM ammonium formate (pH 6) in methanol (B). The gradient program was used at a flow rate of 0.3 mL/min while maintaining the column temperature at 40 °C. The mobile phase initial composition of 25% B was maintained for 2 min. It was then increased linearly from 25% to 95% B for 0.5 min and held for 7 min. The gradient was then changed back to the initial condition for 0.5 min and kept at the initial condition for 3 min. The total analysis time was 13 min for each sample. The injection volume was 15 μL.
The mass spectrometric detection was performed on an Agilent 6460 triple-quadruple mass spectrometer (Agilent Technologies, Singapore) with an electrospray ionization source. It was operated in the negative ion detection mode because of its higher sensitivity than that in the positive ionization mode on multiple reaction monitoring (MRM). The data were acquired and processed using Mass Hunter Workstation B.06.00 software (Agilent Technologies, Singapore). The source parameters were also optimized as follows: a drying gas flow and temperature at 6 L/min and 350 °C were used, respectively; the sheath gas flow and temperature were maintained at 12 L/min and 350 °C, respectively; the nebulizing gas (N2) pressure was set at 25 psi; and the capillary and nozzle voltages were set at 3500 V and 500 V, respectively.
To 20 μL aliquot of the rat plasma samples, 60 μL of 5 ng/mL IS in methanol was added. The mixture was vortexed for 30 s and kept at 4 °C for 30 min. The mixture was centrifuged at 10,000× g for 10 min. The supernatant was transferred to an HPLC vial, and 15 μL of the processed sample was injected onto the LC-MS/MS system.
Male Sprague‒Dawley rats (8-week-old, weighing 250 ± 10 g) were obtained from Koatech (Pyeongtaek, Korea). They were housed and acclimated in the Animal Laboratory, Gyeongsang National University, under controlled temperature and humidity and regular 12 h light cycle, freely accessible to food and water for 7 days before the experiment. The rats were cannulated into the carotid artery and allowed to recover for one day. Before the pharmacokinetic study, all rats were fasted for 12 h with free access to water. R. acetosa extract suspended in a solution (ethanol:polysorbate 80:water = 1:2:7, v/v/v) was orally administered to the three rats at a dose of 2 g/kg. The calculated doses of compounds based on the contents in the extract were 18.8, 25.8, 13.6, 15.4, 3.4, and 8.2 mg/kg for E, EG, C, CG, P, and PG, respectively. Blood samples (100 µL) were collected via the cannulated carotid vessel at 0, 15, 30, 45 min, 1, 2, 3, 4, 6, 8, 12, and 24 h after oral administration. To collect plasma, the blood samples were immediately centrifuged at 10,000× g for 5 min. All plasma samples were stored at −80 °C until analysis. All experimental procedures of the animal study were approved (GNU-130618-R0038) by the Animal Care and Use Committee of Gyeongsang National University, Korea.

[2] = Stability of the analytes in rat plasma (method validation); type: in vitro ADME; details: n = 3; for Processed Sample Stability, Accuracy: processed rat plasma sample, 4 °C 24 h; for Short Term Stability, Accuracy / Freeze and Thaw Stability, Accuracy / Long Term Stability, Accuracy: rat plasma; for Short Term Stability, Accuracy: room temperature 4 h; for Freeze and Thaw Stability, Accuracy: three freeze-thaw cycles −80 °C to room temperature; for Long Term Stability, Accuracy: −80 °C one month
Procedure: (§1) The stability of the analytes in rat plasma was evaluated by analyzing triplicates of three QC levels at room temperature for 4 h (short-term stability), −80 °C for one month (long-term stability), three freeze-thaw cycles from −80 °C to room temperature (freeze and thaw stability), and 4 °C for 24 h (processed sample stability). The stability of analytes in stock solution was also evaluated. The peak areas obtained from freshly prepared stock solutions were compared with stock solutions stored for 4 h at room temperature.

[3] = Stability of analytes in stock solution; type: physicochemical; details: stock solutions stored at room temperature for 4 h, n = 3
Procedure: The primary stock solutions of E, EG, C, CG, P, PG, and IS were prepared in dimethyl sulfoxide at a concentration of 1 mg/mL and stored at −80 °C. The mixture stock solutions to obtain the standard solutions were serially diluted in methanol. The IS stock solution of 5 ng/mL was prepared in methanol. The calibration standards were prepared by spiking 10 μL of above standard solutions into 90 μL of blank rat plasma to yield concentration ranges of 1–300 ng/mL for E, 20–300 ng/mL for P and C, 1–150 ng/mL for EG, 10–150 ng/mL for CG and PG. Twenty microliters of aliquots were prepared and stored at −80 °C until analysis.
as §1

[4] = set-up: method as in doi:10.1039/C5RA27273D; details: hyperlipidemic hamsters after administration of rhubarb; cited from earlier work
[5] = set-up: method as in PMID 19921750; details: after administration of emodin 40 mg/kg; rapidly and extensively metabolized to its glucuronide; cited from earlier work
[6] = male, Sprague-Dawley, plasma, read-out: Median Tmax (converted)
[7] = high QC (P, E, C 300; PG, EG, CG 150 ng/mL)
[8] = low QC (P, C 60; E, EG 3; PG, CG 30 ng/mL)
[9] = middle QC (P, E, C 150; PG, EG, CG 75 ng/mL)
[10] = male, Sprague-Dawley, plasma, n = 3, median (range), read-out: Tmax

MRT ([1]; male, Sprague-Dawley, plasma)	half-life ([1]; male, Sprague-Dawley, plasma)	Cmax ([1]; male, Sprague-Dawley)	AUC(0-t) ([1]; male, Sprague-Dawley)	first time detected in plasma of every rat (first sampling time) [1]	time from which plasma concentrations were below the LLOQ [1]	Processed Sample Stability, Accuracy [2, 7]	Processed Sample Stability, Accuracy [2, 8]	Processed Sample Stability, Accuracy [2, 9]	Short Term Stability, Accuracy [2, 7]	Short Term Stability, Accuracy [2, 8]	Short Term Stability, Accuracy [2, 9]	Freeze and Thaw Stability, Accuracy [2, 7]	Freeze and Thaw Stability, Accuracy [2, 8]	Freeze and Thaw Stability, Accuracy [2, 9]	Long Term Stability, Accuracy [2, 7]	Long Term Stability, Accuracy [2, 8]	Long Term Stability, Accuracy [2, 9]	mean concentration in stock solution compared with fresh stock solutions [3]	Structure (SMILES)	Tmax [1, 6]	further results
2.4 ± 0.2 h	3.9 ± 0.6 h	156 ± 86 ng/mL	266 ± 70.9 ng·h/mL	15 min	6 h	102.3%	101.5%	103.7%	101.2%	103.5%	98.6%	92.4%	89.7%	91.8%	102.6%	104.3%	97.9%	95.9%	Cc1cc(O)c2c(c1)C(=O)c1cccc(O)c1C2=O [C, chrysophanol]	0.25 h	Tmax ([1]; n = 3, median (range)): 0.25 (0.25–0.5) h
2.4 ± 0.08 h	4.8 ± 0.5 h	28.7 ± 4.7 ng/mL	158 ± 12.3 ng·h/mL	15 min	–	96.7%	91.1%	100.2%	101.8%	97.6%	96.9%	97.0%	98.3%	101.0%	101.5%	97.5%	100.6%	101.7%	Cc1cc(O)c2c(c1)C(=O)c1cccc(O[C@@H]3O[C@H](CO)[C@@H](O)[C@H](O)[C@H]3O)c1C2=O [CG, chrysophanol-8-O-β-D-glucoside]	–	Tmax [1, 10]: 2 h; time until which the analyte could be detected in plasma [1]: 8 h
–	–	–	–	–	–	100.3%	91.5%	107.9%	98.9%	99.8%	108.5%	100.9%	100.4%	112.3%	102.8%	102.9%	107.9%	100.4%	Cc1cc(O)c2c(c1)C(=O)c1cc(O)cc(O[C@@H]3O[C@H](CO)[C@@H](O)[C@H](O)[C@H]3O)c1C2=O [EG, emodin-8-O-β-D-glucoside]	–	plasma concentrations (in words) [1]: not high enough to determine the pharmacokinetic parameters; detection in plasma (in words) [4]: not detected
–	–	–	–	–	–	102.7%	102.2%	101.6%	103.8%	104.9%	98.9%	104.2%	103.6%	103.9%	98.0%	107.3%	100.1%	99.2%	COc1cc(O)c2c(c1)C(=O)c1cc(C)cc(O)c1C2=O [P, physcion]	–	plasma concentrations (in words) [1]: not high enough to determine the pharmacokinetic parameters
2.7 ± 0.6 h	6.2 ± 3.9 h	20.5 ± 1.4 ng/mL	82.8 ± 13.8 ng·h/mL	15 min	6 h	96.8%	98.8%	92.7%	96.7%	98.9%	91.8%	93.6%	101.5%	94.3%	97.1%	97.7%	98.5%	102.4%	COc1cc(O[C@@H]2O[C@H](CO)[C@@H](O)[C@H](O)[C@H]2O)c2c(c1)C(=O)c1cc(C)cc(O)c1C2=O [PG, physcion-8-O-β-D-glucoside]	–	Tmax [1, 10]: 0.75 h

Structure (SMILES)	MRT ([1]; male, Sprague-Dawley, plasma)	half-life ([1]; male, Sprague-Dawley, plasma)	Cmax ([1]; male, Sprague-Dawley)	AUC(0-t) ([1]; male, Sprague-Dawley)	first time detected in plasma of every rat (first sampling time) [1]	time from which plasma concentrations were below the LLOQ [1]	Processed Sample Stability, Accuracy [2, 7]	Processed Sample Stability, Accuracy [2, 8]	Processed Sample Stability, Accuracy [2, 9]	Short Term Stability, Accuracy [2, 7]	Short Term Stability, Accuracy [2, 8]	Short Term Stability, Accuracy [2, 9]	Freeze and Thaw Stability, Accuracy [2, 7]	Freeze and Thaw Stability, Accuracy [2, 8]	Freeze and Thaw Stability, Accuracy [2, 9]	Long Term Stability, Accuracy [2, 7]	Long Term Stability, Accuracy [2, 8]	Long Term Stability, Accuracy [2, 9]	mean concentration in stock solution compared with fresh stock solutions [3]	Tmax [1, 6]	further results
Cc1cc(O)c2c(c1)C(=O)c1cc(O)cc(O)c1C2=O [E, emodin]	7.7 ± 3 h	–	124 ± 41.7 ng/mL	1160 ± 336 ng·h/mL	15 min	–	104.6%	108.2%	108.0%	101.8%	103.2%	100.7%	102.0%	107.5%	104.5%	107.7%	106.8%	107.8%	94.8%	0.25 h	time until which the analyte could be detected in plasma [1]: 24 h; Tmax ([1]; n = 3, median (range)): 0.25 (0.25–0.75) h; time until which the analyte could be detected [4]: 36 h; detection of the parent form (in words) [5]: almost undetectable
